This passage reports absorption maximum results from the Deep4Chem optical property database.

A short description of the series: solvent given as SMILES.

Regarding `CN(C)c1ccc(C#Cc2cc(C#Cc3ccc(C(F)(F)F)cc3)c3ccc4c(C#Cc5ccc(N(C)C)cc5)cc(C#Cc5ccc(C(F)(F)F)cc5)c5ccc2c3c45)cc1`, the absorption maximum (in ClCCl) worked out at 509 nm.
Where the note is “in CC#N”, `CN(C)c1ccc(C=C2Oc3cccc(O)c3C2=O)cc1` gave an absorption maximum of 449 nm.
In the case of `CCC1(CC)c2cc(C=O)ccc2-c2ccc(N(C)C)cc21`, the absorption maximum was determined as 385 nm (in C1CCCCC1); 385 nm (in CC#N); 388 nm (in CCO); 379 nm (in CCOCC); 395 nm (in CS(C)=O); 392 nm (in ClCCl). The same compound displayed an absorption maximum (in c1ccccc1) of 388 nm.
For the compound `CCN(CC)c1ccc(-c2nc3c(c4c2-c2ccccc2CC4)-c2ccccc2CC3)cc1`, the absorption maximum turned out to be 357 nm (in C1CCOC1); 360 nm (in CC#N); 355 nm (in CCCCCC); 346 nm (in CCOC(C)=O); 352 nm (in CO); 361 nm (in CS(C)=O). Also, the absorption maximum runs as follows: (in Cc1ccccc1) 359 nm; (in ClCCl) 357 nm.
On to `CC1=C(c2ccc(N(c3ccccc3)c3ccccc3)cc2)C(C)=[N+]2C1=C(c1c(-c3ccccn3)nc3ccccn13)c1c(C)c(-c3ccc(N(c4ccccc4)c4ccccc4)cc3)c(C)n1[B-]2(F)F`, for which the absorption maximum (in ClCCl) is 568 nm.
As for `N#Cc1ccc(/C=C/C=C/C2=NC3C(=O)NC(N)=NC3N2[C@H]2C[C@H](O)[C@@H](CO)O2)cc1` (stereo partly specified), the absorption maximum was 395 nm (in C1COCCO1), 387 nm (in CC#N) and 381 nm (in CO).
Take `Cc1ccc(NC(=O)c2sc(Br)nc2C)cc1`: the absorption maximum reads like this: (in C1CCOC1) 301.5 nm; (in CC#N) 281.6 nm; (in CCCCCC) 286.9 nm; (in CCOC(C)=O) 286.1 nm; (in CN(C)C=O) 287.1 nm; (in CO) 282.1 nm. Moreover, the absorption maximum was 283.5 nm (in CS(C)=O) and 288.3 nm (in ClC(Cl)Cl).
With `C(=C\N1CCCC1)/c1nc2ccccc2nc1-c1ccccc1`, under “in CC#N”, the absorption maximum is given as 438 nm.
With `FC(F)(F)c1cc2n(n1)[B-]1(c3ccccc3-c3ccccc31)[n+]1ccc3ccccc3c1-2`, the absorption maximum runs as follows: (in C1CCCCC1) 373 nm; (in Cc1ccccc1) 375 nm; (in ClCCl) 373 nm.
With `O=C(O)c1cccc2c(=O)c3ccccc3[nH]c12`, the absorption maximum (in O) came out at 413 nm.
Regarding `CN1/C(=C/C=C/C2=[N+](C)c3ccccc3C2(C)C)Sc2ccccc21`, under “in CS(C)=O”, the absorption maximum amounted to 549 nm.
Turning to `CCN(CC)c1ccc(-c2cc3c(s2)c(C(=O)OC)cc(=O)n3C)cc1`, the absorption maximum is recorded as 436 nm (in C1CCOC1); 436 nm (in CC#N); 444 nm (in CCO); 444 nm (in CO); 446 nm (in CS(C)=O); 434 nm (in Cc1ccccc1).
The compound `C#Cc1ccc2ccc3oc(=O)cc(C)c3c2c1` yielded an absorption maximum (in CCO) of 362 nm.
On to `COc1ccc(C#Cc2ccccc2C#Cc2ccc(OC)cc2)cc1`, for which the absorption maximum (in CC#N) was 320 nm.
Consider `CCN(CC)c1ccc(/C=C/c2ccc(-c3ccc(/C=C/c4ccc(N(CC)CC)cc4)s3)s2)cc1`, for which the absorption maximum (in Cc1ccccc1) is listed as 467.9 nm.
In the case of `CCCCCCCCCCCCCCCCCCOc1ccc(C#Cc2cc3nc4c(OCCCCCCCCCCCC)cc5c6cc(OCCCCCCCCCCCC)c(OCCCCCCCCCCCC)cc6c6cc(OCCCCCCCCCCCC)c(OCCCCCCCCCCCC)cc6c5c4nc3cc2C#Cc2ccc(OCCCCCCCCCCCCCCCCCC)cc2)cc1`, where the note is “in ClC(Cl)Cl”, the absorption maximum came to 487 nm.
In the case of `CC1(C)C(/C=C/C=C/c2cc3ccc(O)cc3oc2=O)=[N+](CCCS(=O)(=O)[O-])c2ccccc21`, the absorption maximum (in CS(C)=O) was determined as 491 nm and the absorption maximum (in O) is reported as 564 nm.
Turning to `CC(C)(C)[Si](C)(C)c1ccc([Si](C)(C)C(C)(C)C)c2ccccc12`, under “in C1CCCCC1”, the absorption maximum came to 302 nm.
As to `C1=CN2C[n+]3ccc4ccccc4c3N=C2c2ccccc21`, for the setting “in CO”, the absorption maximum is on record as 453 nm.
Turning to `COc1ccc2n1[B-](F)(F)[N+]1=CC=CC1=C2c1ccccc1`, the absorption maximum reads like this: (in CC#N) 493 nm; (in CCCCCC) 499 nm; (in CCOC(C)=O) 495 nm; (in CO) 495 nm; (in ClCCl) 499 nm.
Compound `c1ccc(N2c3ccccc3C3(c4ccccc4-c4ccccc43)c3ccccc32)cc1` yielded an absorption maximum (in ClCCl) of 310 nm.
Consider `C[SiH](C)c1ccc([SiH](C)C)c2ccccc12`, for which, under “in C1CCCCC1”, the absorption maximum amounted to 300 nm.
`CCOC(=O)c1cc(C(=O)OCC)c2ccc(O)cc2n1` came in with an absorption maximum (in CCO) of 373 nm.
Take `Cc1ccc(-n2c3ccc(-c4ccc(-c5nc6ccccc6n5-c5ccccc5)cc4)cc3c3cc(-c4ccc(-c5nc6ccccc6n5-c5ccccc5)cc4)ccc32)cc1`: where the note is “in ClC(Cl)Cl”, the absorption maximum turned out to be 318 nm.
Regarding `COc1ccc(-c2cc(C)nc(-c3ccc(-n4c5ccccc5c5ccccc54)cc3)n2)cc1`, the absorption maximum is, setting by setting: (in C1CCOC1) 339 nm; (in CN(C)C=O) 340 nm; (in Cc1ccccc1) 341 nm; (in ClC(Cl)Cl) 342 nm.
Where the note is “in CC#N”, `CC(C)=CC(=O)c1cc2c(cc1F)NC(C)(C)CC2=O` returned an absorption maximum of 356 nm.
As for `CC/[NH+]=c1\cc2oc3cc(NCCC(=O)NC(C(=O)OC)C(C)C)c4ccccc4c3nc-2cc1C` (stereo unspecified), the absorption maximum reads like this: (in CCO) 590 nm; (in O) 580 nm.
For the compound `CC(C)(C)c1ccc(N2c3ccc(C(C)(C)C)cc3B3c4cc(C(C)(C)C)ccc4N(c4ccc(C(C)(C)C)cc4)c4cc(-n5c6ccc(C(C)(C)C)cc6c6cc(C(C)(C)C)ccc65)cc2c43)cc1`, the absorption maximum (in Cc1ccccc1) came to 451 nm.
Consider `COc1ccc(C2=[N+]3C(=Nc4c(-c5ccccc5-c5ccc(C(C)(C)C)cc5)cc(-c5ccc(OC)cc5)n4[B-]3(F)F)c3c2c2cc(C(C)(C)C)ccc2c2ccccc32)cc1`, for which the absorption maximum (in Cc1ccccc1) was 701 nm.
As to `CC(C)(C)c1ccc(-n2c(-c3ccc(-c4cccc(-c5c(-c6ccccc6)nc6ccccn56)c4)cc3)nc3c4ccccc4c4ccccc4c32)cc1`, the absorption maximum (in ClCCl) is recorded as 365 nm.
In turn, `CC1(C)c2ccccc2N2c3ccccc3C3(c4cc(C#N)ccc4-c4ccc(C#N)cc43)c3cccc1c32` yielded an absorption maximum (in Cc1ccccc1) of 327.78 nm.
Consider `F[B-]1(F)n2ccnc2-c2cccc[n+]21`, for which the absorption maximum by setting is: (in C1CCCCC1) 298 nm; (in C1CCOC1) 298 nm; (in C1COCCO1) 297 nm; (in CC#N) 295 nm; (in CCCCCC) 297 nm; (in CO) 293 nm. For the same compound, the absorption maximum (in ClC(Cl)Cl) was 300 nm.
Regarding `Nc1ccc2ccc([O-])cc2c1`, for the setting “in O”, the absorption maximum came out at 342 nm.
For `c1ccc(-c2nc(-c3ccccc3)nc(-c3ccc(-c4ccc(N5c6ccccc6[Si](c6ccccc6)(c6ccccc6)c6ccccc65)cc4)cc3)n2)cc1`, under “in Cc1ccccc1”, the absorption maximum turned out to be 308 nm.
In turn, `c1cc2ccc3[se]c4ccc5cccc6c(c1)c2c3c4c56` displayed an absorption maximum (in ClC(Cl)Cl) of 416.5 nm.
As to `CN(C)c1ccc2c(c1)C(=O)NC2=O`, the absorption maximum reads like this: (in C1CCOC1) 377 nm; (in C1COCCO1) 378 nm; (in CC#N) 388 nm; (in CC(C)(C)O) 387 nm; (in CC(C)=O) 382 nm; (in CC(C)O) 389 nm. The absorption maximum reads like this: (in CCOCC) 371 nm; (in CO) 396 nm; (in O) 408 nm.
`CCC1=C(C)C2=C(C)c3c(C)c(CC)c(C)n3[B-](F)(F)[N+]2=C1C` gave an absorption maximum (in C1CCCCC1) of 522.5 nm; an absorption maximum (in C1CCOC1) of 518.4 nm; an absorption maximum (in C1COCCO1) of 518.6 nm; an absorption maximum (in CC#N) of 514.8 nm; an absorption maximum (in CC(C)=O) of 516 nm; an absorption maximum (in CC(C)O) of 518.8 nm. The absorption maximum (in CCC(C)C) is 520.4 nm; the absorption maximum (in CCCCCC) came to 521.1 nm; the absorption maximum (in CCCCCCCC) was found to be 521.2 nm; the absorption maximum (in CCCCCCCCCCO) was determined as 521.8 nm; the absorption maximum (in CCCCCCCCO) was determined as 521 nm; the absorption maximum (in CCCCCCO) is reported as 520.4 nm. The compound also gave an absorption maximum (in CCCCO) of 519.4 nm; an absorption maximum (in CCCO) of 518.9 nm; an absorption maximum (in CCO) of 517.7 nm; an absorption maximum (in CCOC(C)=O) of 516.4 nm; an absorption maximum (in CCOCC) of 518.8 nm; an absorption maximum (in CN1CCCC1=O) of 518.2 nm. Also, the absorption maximum is, setting by setting: (in CN(C)C=O) 517.1 nm; (in CO) 516.2 nm; (in Cc1ccccc1) 522.5 nm; (in ClCCl) 520 nm; (in OCC(F)(F)F) 515.7 nm; (in OCCO) 518 nm. In addition, the absorption maximum by setting is: (in OCCOc1ccccc1) 522.3 nm; (in c1ccccc1) 522.7 nm.
In the case of `CN(C)c1ccc(/C=C/c2nc3c(ccc4ccccc43)s2)cc1`, the absorption maximum reads like this: (in C1CCCCC1) 402 nm; (in CC#N) 409 nm.
`COc1ccccc1-c1nc2c3ccccc3c3ccccc3c2o1` had an absorption maximum (in Cc1ccccc1) of 364 nm.
`C#Cn1c(-c2cc(-c3nc4ccc(C)cc4n3C#C)cc(-c3nc4ccc(C)cc4n3C#C)c2)nc2ccc(C)cc21` showed an absorption maximum (in ClCCl) of 306.5 nm.
Take `Cc1ccc(C(=O)/C=C2\C(=O)Nc3ccccc32)cc1C`: the absorption maximum is, setting by setting: (in C1CCCCC1) 335 nm; (in C1COCCO1) 335 nm; (in CCCCCC) 333 nm; (in CCOC(C)=O) 335 nm; (in CN(C)C=O) 338 nm; (in ClCCl) 336 nm. Also, for the setting “in O”, the absorption maximum is given as 338 nm.
In turn, `CN(C)c1ccc(/C=C/c2ncnc3ccccc23)cc1` yielded an absorption maximum (in ClCCl) of 433 nm.
